Assay results: ChEMBL document CHEMBL1201862, “PubChem BioAssay data set” (2004)
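Five compound concentrations were applied to cells in 96-well plates for 48 hours; endpoints were derived by simple linear interpolation of the resulting dose-response curve. The concentration for 50% growth inhibition is given as GI50.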 Active and inactive are the calls of the source. Cut-off read from the data, not from the text of the source: active = GI50 up to about 1.1 µM and inactive = higher.

Tests used:
Assay in all cases: NCI-60 cell line screen, 48 h
KM12 = test system: KM12
TK-10 = test system: TK-10
HCC 2998 = test system: HCC 2998
K562 = test system: K562
RXF 393 = test system: RXF 393
SK-MEL-5 = test system: SK-MEL-5
SW-620 = test system: SW-620
UO-31 = test system: UO-31
OVCAR-4 = test system: OVCAR-4
DMS-114 = test system: DMS-114
NCI-H460 = test system: NCI-H460
UACC-62 = test system: UACC-62
MOLT-4 = test system: MOLT-4
HCT-116 = test system: HCT-116
NCI-H522 = test system: NCI-H522
HT-29 = test system: HT-29
RPMI-8226 = test system: RPMI-8226

Row | SMILES | GI50 (KM12) | GI50 (TK-10) | GI50 (HCC 2998) | GI50 (K562) | GI50 (RXF 393) | GI50 (SK-MEL-5) | GI50 (SW-620) | GI50 (UO-31) | GI50 (OVCAR-4) | GI50 (DMS-114) | GI50 (NCI-H460) | GI50 (UACC-62) | GI50 (MOLT-4) | GI50 (HCT-116) | GI50 (NCI-H522) | GI50 (HT-29) | GI50 (RPMI-8226)
1 | N#CC(C(=N/NC(N)=S)/C(=N/NC(N)=S)C(C#N)c1ccc(Cl)cc1)c1ccc(Cl)cc1 (stereo unspecified) | > 100 µM (inactive) | > 100 µM (inactive) | > 100 µM (inactive) | 34.9 µM (inactive) | 47.3 µM (inactive) | 78.2 µM (inactive) | 41.7 µM (inactive) | > 100 µM (inactive) | > 100 µM (inactive) | > 100 µM (inactive) | > 100 µM (inactive) | 59.6 µM (inactive) | 22.7 µM (inactive) | > 100 µM (inactive) | > 100 µM (inactive) | > 100 µM (inactive) | –
2 | NNC(=S)N/N=C/C(=C/Nc1ccccc1)[N+](=O)[O-] | – | > 100 µM (inactive) | > 100 µM (inactive) | 10 µM (inactive) | > 100 µM (inactive) | – | > 100 µM (inactive) | – | > 100 µM (inactive) | > 100 µM (inactive) | – | > 100 µM (inactive) | – | > 100 µM (inactive) | > 100 µM (inactive) | > 100 µM (inactive) | > 100 µM (inactive)
3 | CCC(/C(=N\Nc1c(Cl)cc(Cl)cc1Cl)c1ccccc1)n1ccnc1C (stereo unspecified) | 10.4 µM (inactive) | 14.3 µM (inactive) | 3.66 µM (inactive) | 5.07 µM (inactive) | > 10 µM (inactive) | 7.91 µM (inactive) | 15.2 µM (inactive) | 5.97 µM (inactive) | 10.5 µM (inactive) | 6.58 µM (inactive) | 11 µM (inactive) | 17.5 µM (inactive) | 5.41 µM (inactive) | 7.05 µM (inactive) | 4.55 µM (inactive) | 8.05 µM (inactive) | 3.99 µM (inactive)
4 | COC(=O)C(=O)C(C(=O)C(=O)Nc1cc(Cl)c(Cl)cc1Cl)c1nc2ccc([N+](=O)[O-])cc2nc1O (stereo unspecified) | > 100 µM (inactive) | > 100 µM (inactive) | > 100 µM (inactive) | > 100 µM (inactive) | > 100 µM (inactive) | > 100 µM (inactive) | > 100 µM (inactive) | 51.4 µM (inactive) | > 100 µM (inactive) | > 100 µM (inactive) | – | > 100 µM (inactive) | > 100 µM (inactive) | > 100 µM (inactive) | 46.9 µM (inactive) | – | > 100 µM (inactive)
5 | CC1(C)OC2OC(/C=C/[N+](=O)[O-])C3OC(C)(C)OC3C2O1 (stereo unspecified) | 17.2 µM (inactive) | 5.26 µM (inactive) | 16.8 µM (inactive) | 6.84 µM (inactive) | 1.99 µM (inactive) | 16.6 µM (inactive) | 3.27 µM (inactive) | 20.4 µM (inactive) | 16.3 µM (inactive) | 18.6 µM (inactive) | 15.4 µM (inactive) | 15.1 µM (inactive) | 3.01 µM (inactive) | 9.06 µM (inactive) | 1.77 µM (inactive) | 17.2 µM (inactive) | –
6 | COc1c(C)c2c(c3c1c(=O)c1ccccc1n3C)C=CC(C)(C)O2 | 17.9 µM (inactive) | 48.3 µM (inactive) | 28.4 µM (inactive) | 13.4 µM (inactive) | 51.5 µM (inactive) | 15.3 µM (inactive) | 38 µM (inactive) | 26.5 µM (inactive) | – | 14.5 µM (inactive) | 18.7 µM (inactive) | 14.4 µM (inactive) | 19.5 µM (inactive) | 18.5 µM (inactive) | 20.9 µM (inactive) | 14 µM (inactive) | 9.02 µM (inactive)
7 | Cc1cccc(C2=NC(C)(C)C(C)(C)N=C2c2cccc(C)n2)n1 | > 100 µM (inactive) | > 100 µM (inactive) | > 100 µM (inactive) | 41.8 µM (inactive) | > 100 µM (inactive) | > 100 µM (inactive) | > 100 µM (inactive) | > 100 µM (inactive) | > 100 µM (inactive) | 30.8 µM (inactive) | > 100 µM (inactive) | > 100 µM (inactive) | – | 35.4 µM (inactive) | > 100 µM (inactive) | 26.1 µM (inactive) | 34.6 µM (inactive)
8 | COC1=C(C(=O)OC(C)(C)C)C23CCCCC2(C(C(=O)OC(C)(C)C)=C(OC)C3C(=O)OC(C)(C)C)C1C(=O)OC(C)(C)C (stereo unspecified) | 34 µM (inactive) | > 100 µM (inactive) | 53.6 µM (inactive) | 9.64 µM (inactive) | 27.6 µM (inactive) | 12.4 µM (inactive) | 60.3 µM (inactive) | 9.35 µM (inactive) | 9.12 µM (inactive) | 9.84 µM (inactive) | 11.5 µM (inactive) | 54.8 µM (inactive) | 6.46 µM (inactive) | 14.2 µM (inactive) | 11.6 µM (inactive) | 18.5 µM (inactive) | 8.47 µM (inactive)
9 | O=C(O)CCC(=O)OCN1C(=O)C2C3C=CC(C2C1=O)C1C2C(=O)N(COC(=O)CCC(=O)O)C(=O)C2C31 (stereo unspecified) | 97.5 µM (inactive) | > 100 µM (inactive) | > 100 µM (inactive) | > 100 µM (inactive) | > 100 µM (inactive) | > 100 µM (inactive) | 38.4 µM (inactive) | 98.6 µM (inactive) | > 100 µM (inactive) | > 48.1 µM (inactive) | 32.5 µM (inactive) | > 100 µM (inactive) | > 90.4 µM (inactive) | > 37.8 µM (inactive) | > 47 µM (inactive) | > 100 µM (inactive) | 21.4 µM (inactive)
10 | CCCCCCCCCCCCCP(=O)(O)O | > 100 µM (inactive) | > 100 µM (inactive) | > 100 µM (inactive) | – | 35.5 µM (inactive) | > 100 µM (inactive) | > 100 µM (inactive) | > 100 µM (inactive) | > 100 µM (inactive) | > 100 µM (inactive) | > 100 µM (inactive) | > 100 µM (inactive) | – | > 100 µM (inactive) | > 100 µM (inactive) | > 100 µM (inactive) | –
11 | N#CCCN(CCC#N)c1ccc(C(Sc2ccccc2)C(NC(=O)c2cc([N+](=O)[O-])ccc2Cl)C(=O)Sc2ccccc2)cc1 (stereo unspecified) | 3.53 µM (inactive) | 7.28 µM (inactive) | 6.65 µM (inactive) | 2.39 µM (inactive) | 2.09 µM (inactive) | 3.27 µM (inactive) | 2.19 µM (inactive) | 2.2 µM (inactive) | 6.15 µM (inactive) | 2.37 µM (inactive) | 4.41 µM (inactive) | 1.68 µM (inactive) | 0.385 µM (active) | 2.17 µM (inactive) | 2.36 µM (inactive) | 4.1 µM (inactive) | 1.77 µM (inactive)
12 | CNC(=S)NC(=S)N(C)C | – | > 100 µM (inactive) | > 100 µM (inactive) | 1.75 µM (inactive) | > 100 µM (inactive) | – | 2.96 µM (inactive) | > 100 µM (inactive) | > 100 µM (inactive) | 64.9 µM (inactive) | 2.71 µM (inactive) | – | 3.61 µM (inactive) | 4.71 µM (inactive) | 0.678 µM (active) | – | 1.67 µM (inactive)
13 | O=C1OCC2C1C1c3ccccc3C(O)c3ccccc3C21 (stereo unspecified) | > 100 µM (inactive) | > 100 µM (inactive) | > 100 µM (inactive) | > 100 µM (inactive) | > 100 µM (inactive) | > 100 µM (inactive) | > 100 µM (inactive) | > 100 µM (inactive) | > 100 µM (inactive) | > 100 µM (inactive) | > 100 µM (inactive) | > 100 µM (inactive) | > 100 µM (inactive) | > 100 µM (inactive) | – | > 100 µM (inactive) | > 100 µM (inactive)
14 | CC1=N/C(=C\c2ccc(/C=C3/N=C(C)OC3=O)cc2)C(=O)O1 | > 100 µM (inactive) | > 100 µM (inactive) | > 100 µM (inactive) | > 100 µM (inactive) | > 100 µM (inactive) | > 100 µM (inactive) | > 100 µM (inactive) | > 100 µM (inactive) | > 100 µM (inactive) | > 100 µM (inactive) | – | > 100 µM (inactive) | > 10 µM (inactive) | > 100 µM (inactive) | > 100 µM (inactive) | > 100 µM (inactive) | > 100 µM (inactive)
15 | CC1(c2cccc3c2C2(O)C=CC4(CCC32)OCCO4)OCCO1 (stereo unspecified) | > 100 µM (inactive) | > 100 µM (inactive) | > 100 µM (inactive) | > 100 µM (inactive) | > 100 µM (inactive) | > 100 µM (inactive) | > 100 µM (inactive) | > 100 µM (inactive) | > 100 µM (inactive) | > 100 µM (inactive) | > 100 µM (inactive) | > 100 µM (inactive) | > 100 µM (inactive) | > 100 µM (inactive) | > 100 µM (inactive) | > 100 µM (inactive) | > 100 µM (inactive)
16 | COc1cccc(N2C(=O)c3c(c4[nH]c5ccccc5c4c4ccc(C(C)(C)C)cc34)C2=O)c1 | > 100 µM (inactive) | > 100 µM (inactive) | > 100 µM (inactive) | > 100 µM (inactive) | > 100 µM (inactive) | > 100 µM (inactive) | > 100 µM (inactive) | > 100 µM (inactive) | > 100 µM (inactive) | > 100 µM (inactive) | > 100 µM (inactive) | > 100 µM (inactive) | 84.7 µM (inactive) | > 100 µM (inactive) | > 100 µM (inactive) | – | –
17 | O=C(CCc1cc(-c2ccc(F)cc2)n[nH]1)N(Cc1ccccc1)Cc1ccccc1 | > 100 µM (inactive) | > 100 µM (inactive) | > 100 µM (inactive) | > 100 µM (inactive) | > 100 µM (inactive) | > 100 µM (inactive) | > 100 µM (inactive) | > 100 µM (inactive) | – | > 100 µM (inactive) | > 100 µM (inactive) | > 100 µM (inactive) | > 100 µM (inactive) | > 100 µM (inactive) | > 100 µM (inactive) | > 100 µM (inactive) | > 100 µM (inactive)
